Source: patent US6852673B2, “Herbicidal pyridine compounds” (BASF Aktiengesellschaft, priority 1998, dated 2005)

Legend:
Assay type in all cases: in vivo
[1] = tested on: Glycine max (GLXMA); experiment: Pre-emergence herbicidal evaluation, soyabeans
Source text: (§1) The pre-emergence herbicidal activity of the compounds of the present invention is exemplified by the following test in which the seeds of a variety of monocotyledonous and dicotyledonous plants are seperately mixed with potting soil and planted on top of approximately one inch of soil in separate pots. After planting, the pots are sprayed with the selected aqueous acetone solution containing test compound in sufficient quantity to provide the equivalent of about 0.0125 to 0.4 kg per hectare of test compound per pot. The treated pots are then placed on greenhouse benches, watered and cared for in accordance with conventional greenhouse procedures. From 2 to 4 weeks after treatment, the tests are terminated and each pot is examined and rated according to the rating system set forth below.

[2] = tested on: Hordeum vulgare (HORVW); experiment: Pre-emergence herbicidal evaluation, winter barley
Source text: as §1

[3] = tested on: Oryza sativum (ORYSA); experiment: Pre-emergence herbicidal evaluation, rice
Source text: as §1

[4] = tested on: Triticum aestivum (TRZAW); experiment: Pre-emergence herbicidal evaluation, winter wheat
Source text: as §1

[5] = tested on: Zea mays (ZEAMX); experiment: Pre-emergence herbicidal evaluation, maize
Source text: as §1

[6] = tested on: Abutilon theophrasti (ABUTH); experiment: Pre-emergence herbicidal evaluation, velvetleaf
Source text: as §1

[7] = tested on: Ambrosia artemiisifolia (AMBEL); experiment: Pre-emergence herbicidal evaluation, ragweed
Source text: as §1

[8] = tested on: Galium aparine (GALAP); experiment: Pre-emergence herbicidal evaluation, cleaver
Source text: as §1

[9] = tested on: Ipomoea hederacea (IPOHE); experiment: Pre-emergence herbicidal evaluation, morning glory
Source text: as §1

[10] = tested on: Lamium purpureum (LAMPU); experiment: Pre-emergence herbicidal evaluation, purple deadnettle
Source text: as §1

[11] = tested on: Matricaria inodora (MATIN); experiment: Pre-emergence herbicidal evaluation, mayweed
Source text: as §1

[12] = tested on: Solanum nigrum (SOLNI); experiment: Pre-emergence herbicidal evaluation, black nightshade
Source text: as §1

[13] = tested on: Stellaria media (STEME); experiment: Pre-emergence herbicidal evaluation, chickweed
Source text: as §1

[14] = tested on: Alopecurus myosuroides (ALOMY); experiment: Pre-emergence herbicidal evaluation, black grass
Source text: as §1

[15] = tested on: Digitaria sanguinalis (DIGSA); experiment: Pre-emergence herbicidal evaluation, large crabgrass
Source text: as §1

Compound: Cc1cc(OCC(F)(F)C(F)(F)F)nc(Oc2cc(C(F)(F)F)nn2C)c1 [Example 7]
- selectivity in soybeans [1]: quite selective
- GLXMA rating ([1]; dose 0.013 kg/ha): 0 (0 - No effect)
- GLXMA rating ([1]; dose 0.025 kg/ha): 0 (0 - No effect)
- GLXMA rating ([1]; dose 0.1 kg/ha): 2 (2 - Slight effect)
- GLXMA rating ([1]; dose 0.4 kg/ha): 3 (3 - Moderate effect)
- HORVW rating ([2]; dose 0.013 kg/ha): 0 (0 - No effect)
- HORVW rating ([2]; dose 0.025 kg/ha): 0 (0 - No effect)
- HORVW rating ([2]; dose 0.1 kg/ha): 2 (2 - Slight effect)
- HORVW rating ([2]; dose 0.4 kg/ha): 3 (3 - Moderate effect)
- ORYSA rating ([3]; dose 0.013 kg/ha): 0 (0 - No effect)
- ORYSA rating ([3]; dose 0.025 kg/ha): 1 (1 - Trace effect)
- ORYSA rating ([3]; dose 0.1 kg/ha): 1 (1 - Trace effect)
- ORYSA rating ([3]; dose 0.4 kg/ha): 2 (2 - Slight effect)
- TRZAW rating ([4]; dose 0.013 kg/ha): 0 (0 - No effect)
- TRZAW rating ([4]; dose 0.025 kg/ha): 0 (0 - No effect)
- TRZAW rating ([4]; dose 0.1 kg/ha): 1 (1 - Trace effect)
- TRZAW rating ([4]; dose 0.4 kg/ha): 2 (2 - Slight effect)
- selectivity in maize [5]: good selectivity
- ZEAMX rating ([5]; dose 0.013 kg/ha): 0 (0 - No effect)
- ZEAMX rating ([5]; dose 0.025 kg/ha): 0 (0 - No effect)
- ZEAMX rating ([5]; dose 0.1 kg/ha): 0 (0 - No effect)
- ZEAMX rating ([5]; dose 0.4 kg/ha): 2 (2 - Slight effect)
- ABUTH rating ([6]; dose 0.025 kg/ha): 0 (0 - No effect)
- ABUTH rating ([6]; dose 0.1 kg/ha): 1 (1 - Trace effect)
- ABUTH rating ([6]; dose 0.4 kg/ha): 7 (7 - Good herbicidal effect)
- AMBEL rating ([7]; dose 0.025 kg/ha): 1 (1 - Trace effect)
- AMBEL rating ([7]; dose 0.1 kg/ha): 6 (6 - Herbicidal effect)
- AMBEL rating ([7]; dose 0.4 kg/ha): 9 (9 - Complete kill)
- GALAP rating ([8]; dose 0.013 kg/ha): 0 (0 - No effect)
- GALAP rating ([8]; dose 0.025 kg/ha): 0 (0 - No effect)
- GALAP rating ([8]; dose 0.1 kg/ha): 1 (1 - Trace effect)
- GALAP rating ([8]; dose 0.4 kg/ha): 2 (2 - Slight effect)
- IPOHE rating ([9]; dose 0.025 kg/ha): 1 (1 - Trace effect)
- IPOHE rating ([9]; dose 0.1 kg/ha): 2 (2 - Slight effect)
- IPOHE rating ([9]; dose 0.4 kg/ha): 5 (5 - Definite injury)
- LAMPU rating ([10]; dose 0.025 kg/ha): 6 (6 - Herbicidal effect)
- LAMPU rating ([10]; dose 0.1 kg/ha): 8 (8 - Approaching complete kill)
- LAMPU rating ([10]; dose 0.4 kg/ha): 9 (9 - Complete kill)
- MATIN rating ([11]; dose 0.013 kg/ha): 0 (0 - No effect)
- MATIN rating ([11]; dose 0.025 kg/ha): 3 (3 - Moderate effect)
- MATIN rating ([11]; dose 0.1 kg/ha): 8 (8 - Approaching complete kill)
- MATIN rating ([11]; dose 0.4 kg/ha): 9 (9 - Complete kill)
- SOLNI rating ([12]; dose 0.013 kg/ha): 0 (0 - No effect)
- SOLNI rating ([12]; dose 0.025 kg/ha): 1 (1 - Trace effect)
- SOLNI rating ([12]; dose 0.1 kg/ha): 4 (4 - Injury)
- SOLNI rating ([12]; dose 0.4 kg/ha): 9 (9 - Complete kill)
- STEME rating ([13]; dose 0.025 kg/ha): 5 (5 - Definite injury)
- STEME rating ([13]; dose 0.1 kg/ha): 7 (7 - Good herbicidal effect)
- STEME rating ([13]; dose 0.4 kg/ha): 8 (8 - Approaching complete kill)
- ALOMY rating ([14]; dose 0.013 kg/ha): 0 (0 - No effect)
- ALOMY rating ([14]; dose 0.025 kg/ha): 1 (1 - Trace effect)
- ALOMY rating ([14]; dose 0.1 kg/ha): 4 (4 - Injury)
- ALOMY rating ([14]; dose 0.4 kg/ha): 9 (9 - Complete kill)
- DIGSA rating ([15]; dose 0.013 kg/ha): 0 (0 - No effect)
- DIGSA rating ([15]; dose 0.025 kg/ha): 1 (1 - Trace effect)
- DIGSA rating ([15]; dose 0.1 kg/ha): 6 (6 - Herbicidal effect)
- DIGSA rating ([15]; dose 0.4 kg/ha): 8 (8 - Approaching complete kill)
